Experiments:
[1] = system: TGFβ pathway genes in PATC53 pancreatic cancer cells; assay: Quantitative PCR of TGFβ pathway genes, PATC53; type: cell-based; conditions: TGFβ 100 ng/ml, LHRH-curcumin 20 μM and 50 μM
Description: GAPDH was used as a reference.
mRNA levels of Smad3, SNAI1, SNAI2, TGFBRI, TGFBRII, GADD45 and XIAP were determined by quantitative real-time PCR using the Roche Universal Library Probe protocol. Thermal cycling was carried out using the LightCycler96 system from Roche under the following conditions: 95° C. for 10 min and 40 cycles at 95° C. for 15 s and 55° C. for 60 s. mRNA expression for any given gene is represented as comparative to the control-treated cells. GAPDH was used as the housekeeping gene of reference.

[2] = system: XIAP, cIAP1 and cIAP2 mRNA in Panc-1 cells; assay: Quantitative PCR of inhibitors of apoptosis, Panc-1; type: cell-based; conditions: 50 uM, 24 h post-treatment, relative to DMSO, GAPDH reference
Description: mRNA levels of XIAP, c-IAP1 and c-IAP2 were determined by quantitative real-time PCR using the SYBR Green Real-Time PCR Master Mix form ThermoFisher. Thermal cycling was carried out using the CFX system from BioRad under the following conditions: 95° C. for 10 min and 40 cycles at 95° C. for 15 s and 55° C. for 60 s. mRNA expression for any given gene is represented as comparative to the DMSO-treated cells. GAPDH was used as the housekeeping gene of reference.
GAPDH was used as a reference. Results presented in FIG. 12A (XIAP relative mRNA levels), FIG. 12B (cIAP1 relative mRNA levels), FIG. 12C (cIAP2 relative mRNA levels).

COc1cc(/C=C/C(=O)CC(=O)/C=C/c2ccc(OC(=O)CCCC(=O)NCCCC[C@@H](NC(=O)[C@H](Cc3ccc(O)cc3)NC(=O)[C@H](CO)NC(=O)[C@H](Cc3c[nH]c4ccccc34)NC(=O)[C@H](Cc3c[nH]cn3)NC(=O)[C@@H]3CCC(=O)N3)C(=O)N[C@@H](CC(C)C)C(=O)N[C@@H](CCCNC(=N)N)C(=O)N3CCC[C@H]3C(=O)NCC(N)=O)c(OC)c2)ccc1O [LHRH-curcumin, [DLys6]-LHRH-Curcumin]
mRNA levels of GADD45 and XIAP [1]: affected
mRNA levels of TGFβ signaling genes (SMAD3, SNAI1, SNAI2, TGFBRI, TGFBRII) ([1]; 24 h and 48 h): down-regulated
mRNA levels of XIAP, cIAP1 and c-IAP2 [2]: down-regulated

From US10603335B2, “Cancer treatment combination compositions, methods and uses” (Board of Supervisors of Louisiana State University and …, priority 2016, dated 2020)
